Results: ChEMBL document CHEMBL5576066, “Synthesis and evaluation of 3-hydroxyquinolin-2(1H)-one derivatives as inhibitors of tyrosinase” (Bioorg Med Chem Lett, 2024)

Columns and labels:
Mushroom tyrosinase [1] = target: T1, Mushroom tyrosinase (Agaricus bisporus, UniProt O42713+Q00024+C7FF04+C7FF05); assay: Inhibition of mushroom tyrosinase using L-DOPA as substrate by spectrophotometric analysis; assay type: protein assay
Mushroom tyrosinase [2] = target: T1, Mushroom tyrosinase; assay: Competitive inhibition of mushroom tyrosinase using L-DOPA as substrate assessed as inhibition constant by Lineweaver-Burk plots analysis; assay type: protein assay
Tyrosinase = target: T2, Tyrosinase (Homo sapiens, UniProt P14679); assay: Inhibition of human tyrosinase
T2 sequence (P14679 whole entry): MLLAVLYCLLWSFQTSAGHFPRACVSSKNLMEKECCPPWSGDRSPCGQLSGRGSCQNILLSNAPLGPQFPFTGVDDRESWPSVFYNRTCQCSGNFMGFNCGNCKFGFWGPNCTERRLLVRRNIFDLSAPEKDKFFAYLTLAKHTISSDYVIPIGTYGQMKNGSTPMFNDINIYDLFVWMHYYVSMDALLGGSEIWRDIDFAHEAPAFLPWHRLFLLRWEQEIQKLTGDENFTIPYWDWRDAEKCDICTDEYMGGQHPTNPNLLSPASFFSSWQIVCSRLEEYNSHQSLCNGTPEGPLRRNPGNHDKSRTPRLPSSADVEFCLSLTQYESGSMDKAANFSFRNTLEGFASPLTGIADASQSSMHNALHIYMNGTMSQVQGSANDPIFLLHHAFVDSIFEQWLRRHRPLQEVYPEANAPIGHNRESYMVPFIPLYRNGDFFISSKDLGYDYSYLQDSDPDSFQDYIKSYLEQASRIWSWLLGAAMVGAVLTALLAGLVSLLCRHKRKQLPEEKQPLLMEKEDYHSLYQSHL

SMILES	IC50 (Mushroom tyrosinase [1]) [µM]	Ki (Mushroom tyrosinase [2]) [µM]	IC50 (Tyrosinase) [µM]
Cc1ccc2cc(O)c(=O)[nH]c2c1	173	–	–
O=c1[nH]c2ccc(F)cc2cc1O	3.57	–	–
Cc1cc2cc(O)c(=O)[nH]c2cc1C	43.5	–	–
O=c1oc2ccccc2cc1O [3-HYDROXYCOUMARIN]	2.49	–	26
Cc1cc(C)c2cc(O)c(=O)[nH]c2c1	926	–	–
CC(C)C(=O)Nc1nc(-c2ccc(O)cc2O)cs1	0.13	–	–

Now from value to compound:

IC50 (Mushroom tyrosinase [1]) [µM]	Ki (Mushroom tyrosinase [2]) [µM]	IC50 (Tyrosinase) [µM]	SMILES
2.52	–	–	O=c1[nH]c2ccc(Br)cc2cc1O
2.74	–	–	O=c1[nH]c2ccccc2cc1O
92.7	–	–	O=c1[nH]c2cccc(Cl)c2cc1O
6.11	1.41	–	Cc1ccc2[nH]c(=O)c(O)cc2c1
